According to PMC9089912, “Imaging articular cartilage in osteoarthritis using targeted peptide radiocontrast agents” (PLoS ONE, 2022):
“Also recorded” adds a separate entry of the source. Non-standard residues stand in square brackets, D forms with d. Residues, ends and D or L forms follow the SMILES beside them. Tyr(3,5-I2) = N[C@@H](Cc1cc(I)c(O)c(I)c1)C(=O)O; AEEA = NCCOCCOCC(=O)O

How the values were obtained:
[1] = Ex vivo micro-CT contrast enhancement of murine articular cartilage: DIPIC vs PTA vs iopamidol; set-up: species or system mouse; conditions: 20 mg iodine/ml (PTA: 1% in 70% ethanol); for Thickness of cartilage assessed with the contrast agent: ex vivo mouse tibiae; for Thickness of cartilage assessed with the contrast agent / Difference in X-ray absorption between cartilage and background: micro-CT absorption profile; for X-ray absorption of background / X-ray absorption of cartilage / Difference in X-ray absorption between cartilage and background: overnight incubation of mouse tibiae (n = 3); for X-ray absorption of background / X-ray absorption of cartilage: mean ± SEM
Experimental: Ex vivo imaging with DIPIC, PTA or iopamidol. Mice were culled through inhalation of CO2 and their knee joints harvested and split under a dissection microscope. Tibiae (n = 3) were finely dissected to remove soft tissue and incubated overnight either in DIT peptide or iopamidol (Santa Cruz Biotechnology, Dallas, Texas, USA) at 20 mg iodine/ml (20 μl) or 1% PTA (Sigma) in 70% ethanol. To determine the contrast achieved in the articular cartilage at equilibrium, proximal tibiae were imaged by micro-CT while incubated in each contrast agent. […] Following imaging, tibiae were washed in saline and imaged in fresh saline until the articular cartilage could no longer be detected.
Generation of colour-coded absorption maps. To calibrate micro-CT scans in Hounsfield units (HU), air and water were scanned and reconstructed. The average grey level intensity within a cylindrical VOI was obtained from image histograms in ImageJ (air = -832.85, water = 152.54). Based on knowledge of the average grey level intensity and the corresponding HU (air = -1000, water = 0), the following linear transformation was derived (equation 2): […]
Using this calibration, the grey level intensity of each pixel was linearly transformed into X-ray absorption (HU) for each micro-CT image dataset using Matlab (R2014b, MathWorks, Natick, Massachusetts, USA). To enhance the difference between X-ray absorption of each tissue, colour-coded maps, also expressed in HU, were generated in Matlab by assigning a look up table (LUT) of 256 colours to each image dataset.

[2] = biological target: T1, murine articular cartilage (type II collagen) (Mus musculus, UniProt P28481); assay: Fluorescence histology of murine cartilage after intra-articular injection of DOTAM-Cy5.5 probes; assay type: in vivo; conditions: 24 h after intra-articular injection into mouse knee joints; probes of ref 20
T1 construct: Fixed cryosections of murine tibiae (10 µm) 24 h after intra-articular injection of Ac-WYRGRL-DOTAM-Cy5.5 or Ac-YRLGRW-DOTAM-Cy5.5; from tissue; host or cells: articular cartilage of the mouse knee joint (in vivo injection, histology of tibial cryosections)
Experimental: Fluorescence immunohistochemistry for localisation of Ac-WYRGRL-DOTAM-Cy5.5. Fixed cryosections of murine tibiae (10 µm) 24 h after intra-articular injection of Ac-WYRGRL-DOTAM-Cy5.5 or Ac-YRLGRW-DOTAM-Cy5.5 [1] were blocked with 10% goat serum, stained with rat anti-heparan sulfate proteoglycan antibody (A7L6, Abcam), washed three times with PBS-Tween 0.05% (v/v), labelled with Alexa Fluor 488 goat anti-rat IgG (H+L, Abcam) and washed three times with PBS-Tween 0.05% (v/v) before imaging. Cryosections were viewed under a Nikon TE2000-U Ultraview confocal microscope (PerkinElmer, Seer Green, UK) using a 488 nm excitation laser with 525 nm emission filter to visualise the Alexa Fluor 488 label (green false colour), and a 640 nm excitation laser with 700 nm emission filter to visualise the Cy5.5 label (red false colour).

[3] = Solubility of purified DIT peptides at concentrations needed for radiocontrast; conditions: purified peptide (≥ 95% by HPLC), 10% DMSO/water, at 20 mg iodine/ml as well as 2 mg iodine/ml (lowest concentration for contrast)
From the text: An integrated design, placing DIT into the core of WYRGRL (3) was followed by the addition of a further DIT at the N-terminus (4). […] To improve solubility, both arginine residues in 3 and 4 were replaced with lysine to give 5 and 6, respectively.

T1 sequence (P28481 182-1241 limits assumed): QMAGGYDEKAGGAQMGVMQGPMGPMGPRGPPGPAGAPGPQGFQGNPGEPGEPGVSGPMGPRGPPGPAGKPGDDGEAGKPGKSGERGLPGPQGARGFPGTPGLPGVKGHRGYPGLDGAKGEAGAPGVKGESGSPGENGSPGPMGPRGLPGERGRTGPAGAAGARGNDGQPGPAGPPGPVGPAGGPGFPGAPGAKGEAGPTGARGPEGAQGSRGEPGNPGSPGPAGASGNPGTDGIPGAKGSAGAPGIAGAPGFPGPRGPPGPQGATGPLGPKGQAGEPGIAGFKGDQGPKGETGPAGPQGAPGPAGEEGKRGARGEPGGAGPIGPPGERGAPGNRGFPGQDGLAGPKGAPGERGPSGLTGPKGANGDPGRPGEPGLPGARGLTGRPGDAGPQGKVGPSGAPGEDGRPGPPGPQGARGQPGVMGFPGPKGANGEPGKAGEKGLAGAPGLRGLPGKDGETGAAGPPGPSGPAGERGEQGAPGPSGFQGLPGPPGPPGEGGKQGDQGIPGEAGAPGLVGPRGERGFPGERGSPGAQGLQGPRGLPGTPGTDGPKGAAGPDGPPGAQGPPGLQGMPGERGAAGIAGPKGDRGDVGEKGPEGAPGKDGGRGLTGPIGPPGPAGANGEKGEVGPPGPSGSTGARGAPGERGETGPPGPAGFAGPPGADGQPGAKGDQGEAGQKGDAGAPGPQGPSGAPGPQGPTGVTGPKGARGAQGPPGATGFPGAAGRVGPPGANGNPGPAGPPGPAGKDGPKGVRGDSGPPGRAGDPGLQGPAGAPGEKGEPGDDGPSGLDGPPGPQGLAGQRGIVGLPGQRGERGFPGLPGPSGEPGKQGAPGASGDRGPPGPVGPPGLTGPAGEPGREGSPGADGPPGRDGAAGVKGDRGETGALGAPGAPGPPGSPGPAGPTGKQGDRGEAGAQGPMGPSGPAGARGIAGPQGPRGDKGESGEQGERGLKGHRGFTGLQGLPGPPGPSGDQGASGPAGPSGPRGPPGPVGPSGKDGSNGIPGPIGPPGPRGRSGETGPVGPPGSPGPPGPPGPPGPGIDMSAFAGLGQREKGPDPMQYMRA

Q: What does the source list for O=P(O)(O)O.[O]=[W](=[O])=[O].[O]=[W](=[O])=[O].[O]=[W](=[O])=[O].[O]=[W](=[O])=[O].[O]=[W](=[O])=[O].[O]=[W](=[O])=[O].[O]=[W](=[O])=[O].[O]=[W](=[O])=[O].[O]=[W](=[O])=[O].[O]=[W](=[O])=[O].[O]=[W](=[O])=[O].[O]=[W](=[O])=[O] [PTA, phosphotungstic acid]?
A: Thickness of cartilage assessed with the contrast agent [1]: 110 μm; X-ray absorption of background [1]: 342 ± 64 HU; X-ray absorption of cartilage [1]: 3657 ± 253 HU; Difference in X-ray absorption between cartilage and background [1]: 10.7 fold

Q: With “Ac-WYRGRL-DOTAM-Cy5.5 [targeting peptide conjugated to a macrocyclic DOTAM scaffold with a Cy5.5 fluorophore]” as the molecule, how does the “Binding of probe to cartilage (Cy5.5 fluorescence histology)” value [2] read?
A: strong binding of the targeted probe to cartilage; also recorded: showed binding to cartilage

Q: For CC(C)C[C@H](NC(=O)[C@H](CCCCN)NC(=O)CNC(=O)[C@H](CCCCN)NC(=O)[C@H](Cc1ccc(O)cc1)NC(=O)[C@H](Cc1c[nH]c2ccccc12)NC(=O)COCCOCCNC(=O)[C@H](Cc1cc(I)c(O)c(I)c1)NC(=O)[C@@H](N)Cc1cc(I)c(O)c(I)c1)C(=O)O [compound 12] (H-[Tyr(3,5-I2)][Tyr(3,5-I2)][AEEA]WYKGKL-OH), which “Solubility of pure peptide” value [3] is on record?
A: insoluble

Q: With “Ac-YRLGRW-DOTAM-Cy5.5 [scrambled control peptide-DOTAM-Cy5.5 probe]” as the molecule, how does the “Binding of probe to cartilage (Cy5.5 fluorescence histology)” value [2] read?
A: Only targeted probe (F) showed binding to cartilage

Q: For CC(C)C[C@H](NC(=O)[C@H](CCCNC(=N)N)NC(=O)CNC(=O)[C@H](CCCNC(=N)N)NC(=O)[C@H](Cc1cc(I)c(O)c(I)c1)NC(=O)[C@@H](N)Cc1c[nH]c2ccccc12)C(=O)O [compound 3] (H-W[Tyr(3,5-I2)]RGRL-OH), which “Solubility of pure peptide” value [3] is on record?
A: poor solubility

Q: For C[C@H](O)C(=O)Nc1c(I)c(C(=O)NC(CO)CO)c(I)c(C(=O)NC(CO)CO)c1I [iopamidol], which “Thickness of cartilage assessed with the contrast agent” value [1] is on record?
A: 70 μm

Q: And the “X-ray absorption of background” value [1]?
A: 875 ± 12 HU

Q: And the “X-ray absorption of cartilage” value [1]?
A: 678 ± 29 HU

Q: And the “Difference in X-ray absorption between cartilage and background” value [1]?
A: 0.8 fold

Q: For CC(C)C[C@H](NC(=O)[C@H](CCCCN)NC(=O)CNC(=O)[C@H](CCCCN)NC(=O)[C@H](Cc1cc(I)c(O)c(I)c1)NC(=O)[C@@H](N)Cc1c[nH]c2ccccc12)C(=O)NCCOCCOCC(=O)N[C@@H](Cc1cc(I)c(O)c(I)c1)C(=O)NCC(=O)O [compound 14] (H-W[Tyr(3,5-I2)]KGKL[AEEA][Tyr(3,5-I2)]G-OH), which “Solubility of pure peptide” value [3] is on record?
A: insoluble

Q: Which “Solubility of pure peptide” value [3] does the source give for CC(C)C[C@H](NC(=O)[C@H](CCCCN)NC(=O)CNC(=O)[C@H](CCCCN)NC(=O)[C@H](Cc1cc(I)c(O)c(I)c1)NC(=O)[C@H](Cc1c[nH]c2ccccc12)NC(=O)[C@@H](N)Cc1cc(I)c(O)c(I)c1)C(=O)O [peptide 6] (H-[Tyr(3,5-I2)]W[Tyr(3,5-I2)]KGKL-OH) here?
A: insoluble in solution

Q: For CC(C)C[C@H](NC(=O)[C@H](CCCNC(=N)N)NC(=O)CNC(=O)[C@H](CCCNC(=N)N)NC(=O)[C@H](Cc1cc(I)c(O)c(I)c1)NC(=O)[C@H](Cc1c[nH]c2ccccc12)NC(=O)[C@@H](N)Cc1cc(I)c(O)c(I)c1)C(=O)O [compound 4] (H-[Tyr(3,5-I2)]W[Tyr(3,5-I2)]RGRL-OH), which “Solubility of pure peptide” value [3] is on record?
A: poor solubility
